One data set relates to Ramos. Put plainly: Antiproliferative activity against human Ramos cells assessed as inhibition of cell proliferation measured after 72 hrs by MTT assay. Type of data set: functional, cell-based.
In a further data set the test system is K562. The data set is described as follows: Antiproliferative activity against human K562 cells assessed as inhibition of cell proliferation measured after 72 hrs by MTT assay. As to conditions: K562, 72 h. The data set is classed as functional, cell-based.
The test system of data set [1] is SK-OV-3. The data set is described as follows: Antiproliferative activity against human SK-OV-3 cells assessed as inhibition of cell proliferation measured after 72 hrs by MTT assay. The data set is classed as functional, cell-based. The conditions noted are these: SK-OV-3, 72 h. Background: Tetrazolium assays rely on reduction of a dye to a coloured formazan, in cell work by metabolically active cells.

Data set [2] is described as follows: Tmax in Sprague-Dawley rat at 5 mg/kg, po measured up to 24 hrs by LC/MS/MS analysis. As to conditions: in vivo. Type of data set: ADME, organism-based.
Data set [3] can be described thus: Half life in Sprague-Dawley rat at 5 mg/kg, po measured up to 24 hrs by LC/MS/MS analysis. Type of data set: ADME, organism-based. The conditions noted are these: in vivo.
A short description of data set [4]: AUC (0 to t) in Sprague-Dawley rat at 5 mg/kg, po measured up to 24 hrs by LC/MS/MS analysis. Type of data set: ADME, organism-based. Details: route oral, dose 5 mg/kg, time <=24. As to conditions: in vivo.
Data set [5] deals with Focal adhesion kinase 1 (Homo sapiens) (UniProt Q05397). The data set is described as follows: Inhibition of FAK phosphorylation at […] residue in human SK-OV-3 cells incubated for 24 hrs by Western blot analysis. Type of data set: cell-based. Background: Immunoblotting shows a protein as a band on a membrane.
The nature of data set [6]: Antitumor activity against mouse C26 cells xenografted in BALB/c mouse assessed as tumor growth inhibition at 10 mg/kg, po measured every 2 days for 10 days by vernier caliper analysis relative to control. The data set is classed as functional. The conditions noted are these: 240 h, time 10 day, read-out: TGI.
Data set [7] concerns the target Proto-oncogene tyrosine-protein kinase Src (Homo sapiens) (UniProt P12931). The data set is described as follows: Inhibition of Src kinase phosphorylation at Tyr416/419 residue in human SK-OV-3 cells incubated for 24 hrs by Western blot analysis. Type of data set: cell-based.
Data set [8] is described as follows: Half life in human liver microsomes. The data set is classed as ADME, Microsome. On the technique in general: Liver microsomes are vesicles of endoplasmic reticulum, rich in cytochrome P450 enzymes.
Data set [9] can be described thus: Clearance in Sprague-Dawley rat at 5 mg/kg, po measured up to 24 hrs by LC/MS/MS analysis. The data set is classed as ADME, organism-based. The conditions noted are these: in vivo.
Data set [10] is described as follows: Toxicity in C57 mouse at 40 mg/kg, po administered twice daily. The data set is classed as organism-based. The conditions noted are these: in vivo.
Data set [11] can be described thus: Intrinsic clearance in human liver microsomes. The data set is classed as ADME, Microsome.
The next data set addresses Tubulin. The data set is described as follows: Binding affinity to tubulin (unknown origin) assessed as dissociation constant by tryptophan based binding assay. Type of data set: protein-complex assay, Homo sapiens.
Data set [12] is described as follows: Oral bioavailability in Sprague-Dawley rat at 5 mg/kg measured up to 24 hrs by LC/MS/MS analysis. The data set is classed as ADME, organism-based. As to conditions: in vivo.
Data set [13] in a line: Cmax in Sprague-Dawley rat at 5 mg/kg, po measured up to 24 hrs by LC/MS/MS analysis. The conditions noted are these: in vivo. The arrangement: route oral, dose 5 mg/kg, time <=24. Type of data set: ADME, organism-based.
Data set [14] has as its system SK-OV-3. The data set is described as follows: Induction of mitotic block in human SK-OV-3 cells at 10 to 30 nM in absence of colchicine measured immediately by flow cytometry analysis. The data set is classed as functional, cell-based. As to conditions: dose 10-30 nM.

For orientation: IC50 means the concentration needed to halve the response being measured. As usually defined, the Tmax is the time at which the peak concentration occurs. Usually half-life stands for the time needed for the level to fall by half in the phase considered. Low readings indicate rapid decline, high ones slow decline. The AUC(0-t) is the area under the concentration-time curve up to a stated or last time point. Read a low AUC(0-t) as less exposure. What is called CL/F is the apparent clearance, not corrected for the fraction that reaches the circulation. For orientation: Kd means the equilibrium constant for the complex coming apart. Usually bioavailability stands for the share of a dose that reaches the circulation, judged against a reference dose that is usually intravenous. One may read the Cmax as the maximum level reached in the sampled fluid or tissue.

Active and inactive are the calls of the source.

Proto-oncogene tyrosine-protein kinase Src (Homo sapiens), sequence (P12931 2-536 limits assumed): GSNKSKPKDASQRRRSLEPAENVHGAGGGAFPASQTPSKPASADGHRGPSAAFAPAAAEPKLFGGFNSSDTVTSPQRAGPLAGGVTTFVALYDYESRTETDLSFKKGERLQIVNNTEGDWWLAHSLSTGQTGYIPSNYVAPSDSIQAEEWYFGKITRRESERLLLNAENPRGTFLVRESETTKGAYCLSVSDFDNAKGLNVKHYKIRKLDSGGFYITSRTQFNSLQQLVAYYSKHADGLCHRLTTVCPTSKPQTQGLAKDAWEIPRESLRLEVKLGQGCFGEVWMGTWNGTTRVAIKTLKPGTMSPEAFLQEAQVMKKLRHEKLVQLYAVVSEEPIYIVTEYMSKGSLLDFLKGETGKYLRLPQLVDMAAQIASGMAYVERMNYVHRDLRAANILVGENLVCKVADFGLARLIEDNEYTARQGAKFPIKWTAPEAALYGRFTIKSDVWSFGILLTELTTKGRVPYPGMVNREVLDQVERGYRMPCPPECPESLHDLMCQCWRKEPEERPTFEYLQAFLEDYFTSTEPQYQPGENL
Focal adhesion kinase 1 (Homo sapiens), sequence (Q05397 2-1052 limits assumed): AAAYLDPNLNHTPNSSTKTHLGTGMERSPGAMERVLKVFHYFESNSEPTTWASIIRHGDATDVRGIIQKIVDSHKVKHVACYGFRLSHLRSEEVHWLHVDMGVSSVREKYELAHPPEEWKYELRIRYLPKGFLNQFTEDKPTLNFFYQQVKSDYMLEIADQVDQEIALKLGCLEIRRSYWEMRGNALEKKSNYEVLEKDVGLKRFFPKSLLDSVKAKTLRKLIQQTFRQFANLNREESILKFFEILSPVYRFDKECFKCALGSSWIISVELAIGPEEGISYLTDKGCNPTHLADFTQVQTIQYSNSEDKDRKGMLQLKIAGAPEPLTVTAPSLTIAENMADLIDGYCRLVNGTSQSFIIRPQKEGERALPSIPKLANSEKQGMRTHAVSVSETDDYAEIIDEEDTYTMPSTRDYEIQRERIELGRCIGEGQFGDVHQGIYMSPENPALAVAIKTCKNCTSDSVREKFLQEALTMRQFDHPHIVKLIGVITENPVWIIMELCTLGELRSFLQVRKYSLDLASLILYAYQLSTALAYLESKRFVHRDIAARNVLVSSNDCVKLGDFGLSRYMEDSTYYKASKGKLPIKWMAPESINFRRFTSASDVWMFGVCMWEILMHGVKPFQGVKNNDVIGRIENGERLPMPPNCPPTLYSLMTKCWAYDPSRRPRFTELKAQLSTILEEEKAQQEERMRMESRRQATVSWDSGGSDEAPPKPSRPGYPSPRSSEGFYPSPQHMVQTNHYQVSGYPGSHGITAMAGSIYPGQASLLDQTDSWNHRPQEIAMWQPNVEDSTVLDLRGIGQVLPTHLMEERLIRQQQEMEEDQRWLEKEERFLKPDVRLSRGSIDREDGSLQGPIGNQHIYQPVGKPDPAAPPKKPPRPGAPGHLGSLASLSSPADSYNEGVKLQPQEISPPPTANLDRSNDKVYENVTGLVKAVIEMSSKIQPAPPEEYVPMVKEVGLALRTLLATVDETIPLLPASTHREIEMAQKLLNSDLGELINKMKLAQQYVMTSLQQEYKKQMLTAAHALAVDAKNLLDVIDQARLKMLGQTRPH

For `O=C(Cc1ccc(-c2ccc(OCCN3CCN(C(=O)C4CC4(F)F)CC3)cc2)cn1)NCc1ccccc1` (stereo unspecified), the IC50 with Ramos was determined as 0.0481 µM; in the data set with K562, 0.0535 µM; in the data set on SK-OV-3 [1], 0.0168 µM.
Taken in the same sequence, the figures for `O=C(Cc1ccc(-c2ccc(OCCN3CC4CC4C3)cc2)cn1)NCc1ccccc1` (stereo unspecified) were 0.0196 µM, 0.0292 µM and 0.0091 µM.
With `O=C(Cc1ccc(-c2ccc(OCCN3CCN(C(=O)C4CCC4)CC3)cc2)cn1)NCc1ccccc1`, the Tmax in [2] turned out to be 8.4 min. The IC50 with Ramos came to 0.0015 µM; with K562 it was 0.0023 µM; in the data set on SK-OV-3 [1] it was 0.00059 µM. Besides, the half-life in [3] was 139 min; in data set [8], 20.6 min. Moreover, in data set [4], the AUC(0-t) at 24 h came out at 0.383 µg·h/mL. In addition, the inhibition result in data set [5] and in data set [7] was “Dose-Dependent Effect” in each case. For the same molecule, the inhibition in vivo at 10 mg/kg in [6] was 32%. The molecule further gave a CL/F in [9] of 12.6 L/h/kg. Also, in data set [10], the Activity entry was “Non-Toxic”. This molecule displayed a CLH in data set [11] of 67.4 mL·min/g. In addition, on Tubulin, the Kd was 0.63 µM. This molecule also displayed a bioavailability in [12] of 13.3%. The highest level in [13] (Cmax) was 0.484 µg/mL.
For the molecule `O=C(Cc1ccc(-c2ccc(OCCNC3CC3)cc2)cn1)NCc1ccccc1`, the IC50 in the data set with Ramos stood at 0.0981 µM; in the data set on K562, 0.0293 µM; with SK-OV-3 [1], 0.0052 µM.
For the molecule `O=C(Cc1ccc(-c2ccc(OCCCN3CC4CCC(C3)O4)cc2)cn1)NCc1ccccc1`, the IC50 was found to be 0.0086 µM in the data set with Ramos, 0.0146 µM in the data set on K562 and 0.0071 µM in the data set on SK-OV-3 [1].
`O=C(Cc1ccc(-c2ccc(OCCCN3C[C@@H]4C[C@H]3CO4)cc2)cn1)NCc1ccccc1`: the values for the IC50 in the data set with Ramos, in the data set on K562 and in the data set on SK-OV-3 [1] were over 0.1 µM, over 0.1 µM and 0.0802 µM, respectively.
On to `CC(=O)N1CCN(CCOc2ccc(-c3ccc(CC(=O)NCc4ccccc4)nc3)cc2)CC1`, for which the IC50 in the data set with Ramos is 0.0073 µM; in the data set with K562, 0.0144 µM; in the data set with SK-OV-3 [1] it was 0.004 µM.
The matching figures for `CC(C)(C)OC(=O)N1CCN(CCOc2ccc(-c3ccc(CC(=O)NCc4ccccc4)nc3)cc2)CC1`: 0.0159 µM, over 0.1 µM and 0.0533 µM.
Taken in the same sequence, the figures for `COC1CCN(CCOc2ccc(-c3ccc(CC(=O)NCc4ccccc4)nc3)cc2)CC1` were 0.0158 µM, 0.013 µM and 0.0081 µM.
The matching figures for `CC(C)(C)N1CCN(CCOc2ccc(-c3ccc(CC(=O)NCc4ccccc4)nc3)cc2)CC1`: 0.0433 µM, over 0.1 µM and 0.119 µM.
With `O=C(Cc1ccc(-c2ccc(OCCN3CC4CCCCC4C3)cc2)cn1)NCc1ccccc1` (stereo unspecified), the IC50 with Ramos stood at 0.0197 µM; in the data set on K562, 0.0379 µM; in the data set on SK-OV-3 [1] it was 0.0749 µM.
Taken in the same sequence, the figures for `CC1CCCN(CCOc2ccc(-c3ccc(CC(=O)NCc4ccccc4)nc3)cc2)C1` (stereo unspecified) were over 0.1 µM, over 0.1 µM and 0.0577 µM.
As for `COc1cc2c(c(OC)c1OC)-c1ccc(OC)c(=O)cc1[C@@H](NC(C)=O)CC2`, the result in the data set with SK-OV-3 [14] was inactive.
For `CC1(C)C2CN(CCOc3ccc(-c4ccc(CC(=O)NCc5ccccc5)nc4)cc3)CC21` (stereo unspecified), the IC50 in the data set on Ramos stood at 0.0644 µM; in the data set with K562 it was 0.0415 µM; with SK-OV-3 [1], 0.165 µM.
As for `O=C(Cc1ccc(-c2ccc(OCCCN3CCOCC3)cc2)cn1)NCc1ccccc1`, the IC50 in the data set on Ramos turned out to be 0.129 µM; with K562 it was 0.0509 µM; in the data set with SK-OV-3 [1], 0.0156 µM.
Turning to `O=C(Cc1ccc(-c2ccc(OCCN3CCN(S(=O)(=O)C4CC4)CC3)cc2)cn1)NCc1ccccc1`, the values for the IC50 in the data set on Ramos, in the data set with K562 and in the data set on SK-OV-3 [1] were 0.0041 µM, 0.0058 µM and 0.0024 µM, respectively.
With `O=C(Cc1ccc(-c2ccc(OCCN3C[C@@H]4C[C@H]3CO4)cc2)cn1)NCc1ccccc1`, the values for the IC50 in the data set on Ramos, with K562 and in the data set on SK-OV-3 [1] were 0.0258 µM, 0.0162 µM and 0.0195 µM, respectively.
For `O=C(Cc1ccc(-c2ccc(OCCN3CCC4(CC3)OCCO4)cc2)cn1)NCc1ccccc1`, the IC50 in the data set with Ramos amounted to 0.0238 µM; in the data set on K562, 0.0165 µM; in the data set with SK-OV-3 [1], 0.0067 µM.
Taken in the same sequence, the figures for `O=C(Cc1ccc(-c2ccc(OCCN3CCC4(CC3)CC4)cc2)cn1)NCc1ccccc1` were over 0.1 µM, 0.0341 µM and 0.0975 µM.
Take `O=C(Cc1ccc(-c2ccc(OCCCCN3C[C@@H]4C[C@H]3CO4)cc2)cn1)NCc1ccccc1`: the IC50 in the data set with Ramos came out at 0.025 µM; in the data set with K562, 0.0532 µM; in the data set with SK-OV-3 [1] it was 0.037 µM.
In the case of `O=C(Cc1ccc(-c2ccc(OCCN3CC4CCC(C3)O4)cc2)cn1)NCc1ccccc1`, the values for the IC50 in the data set with Ramos, with K562 and with SK-OV-3 [1] were 0.0031 µM, 0.0062 µM and 0.0032 µM, respectively.
For the molecule `O=C(Cc1ccc(-c2ccc(OCCCCN3CCOCC3)cc2)cn1)NCc1ccccc1`, the IC50 in the data set on Ramos stood at 0.0435 µM; in the data set with K562, 0.0296 µM; in the data set on SK-OV-3 [1] it was 0.0104 µM.
`CCN1CCN(CCOc2ccc(-c3ccc(CC(=O)NCc4ccccc4)nc3)cc2)CC1`: the IC50 in the data set with Ramos turned out to be 0.0363 µM; in the data set on K562 it was 0.0399 µM; with SK-OV-3 [1], 0.0145 µM.
In the case of `O=C(Cc1ccc(-c2ccc(OCCN3CCN(C(=O)[C@H]4C[C@@H]4F)CC3)cc2)cn1)NCc1ccccc1`, the IC50 was 0.0257 µM in the data set with Ramos, 0.0294 µM with K562 and 0.0126 µM with SK-OV-3 [1].
Taken in the same sequence, the figures for `O=C(Cc1ccc(-c2ccc(OCCCCN3CC4CCC(C3)O4)cc2)cn1)NCc1ccccc1` were 0.0173 µM, 0.0405 µM and 0.0218 µM.
